The IC50 is the concentration that gives 50% inhibition.

This assay has as its target T1, IDO1 (Homo sapiens, UniProt P14902).
T1 construct: endogenous in cells; host or cells: HeLa cells (ATCC), IFNgamma-induced
Put plainly: IDO1 cell-based assay (HeLa cells, IFNgamma-induced, N-formylkynurenine/L-tryptophan by RFMS). The following applies: 10 ng/mL IFNgamma, 24 hours. Summed up:
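HeLa cells stimulated with 10 ng/mL IFNgamma and exposed to compound (0.5% DMSO final) for 24 h at 37 °C. Conditioned media deproteinized, then N-formylkynurenine and L-tryptophan quantified by RapidFire MS with deuterated tryptophan internal standard; IC50 by curve fitting. Viability checked by CellTiter-Glo.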

T1 sequence (P14902 whole entry): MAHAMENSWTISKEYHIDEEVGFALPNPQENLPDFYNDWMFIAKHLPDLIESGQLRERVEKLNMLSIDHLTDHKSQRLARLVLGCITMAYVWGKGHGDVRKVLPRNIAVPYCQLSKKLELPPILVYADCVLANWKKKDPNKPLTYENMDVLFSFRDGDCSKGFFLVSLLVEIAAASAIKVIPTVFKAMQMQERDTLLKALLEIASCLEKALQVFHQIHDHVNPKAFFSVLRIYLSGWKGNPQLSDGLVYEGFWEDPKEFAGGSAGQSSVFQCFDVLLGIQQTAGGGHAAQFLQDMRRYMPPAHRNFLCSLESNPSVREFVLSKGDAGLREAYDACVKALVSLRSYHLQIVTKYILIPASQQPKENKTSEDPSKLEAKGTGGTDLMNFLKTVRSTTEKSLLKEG

As for `O=C(Cc1ccc(Cl)cc1)N[C@H]1[C@@H]2C[C@@H](n3cnc4ccc(F)cc4c3=O)C[C@@H]21` [Compound 62, 2-(4-chlorophenyl)-N-((1R,3s,5S,6r)-3-(6-fluoro-4-oxoquinazolin-3(4H)-yl)bicyclo[3.1.0]hexan-6-yl)acetamide], the half-maximal inhibitory concentration (IC50) fell in the range of 2000 to 5000 nM.
Consider `CC[C@@H](NC(=O)c1cccc(F)c1)[C@H]1[C@@H]2C[C@@H](n3cnc4cc(F)c(F)cc43)C[C@@H]21` [Compound 312, N-((R)-1-((1R,3S,5S,6r)-3-(5,6-difluoro-1H-benzo[d]imidazol-1-yl)bicyclo[3.1.0]hexan-6-yl)propyl)-3-fluorobenzamide], for which the concentration for half-maximal inhibition (IC50) is under 200 nM.
For `CCC(NC(=O)c1ccc(Cl)cc1)[C@H]1[C@@H]2C[C@@H](n3cnc4cc(Cl)ccc43)C[C@@H]21` (stereo partly drawn) [Compound 272, 4-chloro-N-(1-((1R,3s,5S,6r)-3-(5-chloro-1H-benzo[d]imidazol-1-yl)bicyclo[3.1.0]hexan-6-yl)propyl)benzamide], the 50% inhibitory concentration (IC50) was under 200 nM.
The result for `O=C(NC[C@@H]1[C@H]2C[C@@H](Oc3ccc4nccc(Cl)c4c3)C[C@@H]12)c1ccc(Cl)cc1` [Compound 33, 4-chloro-N-(((1R,3r,5S,6r)-3-((4-chloroquinolin-6-yl)oxy)bicyclo[3.1.0]hexan-6-yl)methyl)benzamide] reads 200 to 2000 nM; that for `CC[C@@H](NC(=O)c1ccc(Cl)cc1)[C@H]1[C@@H]2C[C@@H](n3cc(C(=O)OC)cn3)C[C@@H]21` [Compound 326, methyl 1-((1R,3S,5S,6r)-6-((R)-1-(4-chlorobenzamido)propyl)bicyclo[3.1.0]hexan-3-yl)-1H-pyrazole-4-carboxylate], under 200 nM.
`CCC(NC(=O)c1ccc(Cl)cc1)[C@H]1[C@@H]2C[C@@H](NS(C)(=O)=O)C[C@@H]21` (stereo partly drawn) [Compound 159, 4-chloro-N-(1-((1R,3s,5S,6r)-3-(methylsulfonamido)bicyclo[3.1.0]hexan-6-yl)propyl)benzamide] returned an IC50 of 200 to 2000 nM.
The result for `CC[C@@H](NC(=O)c1ccc(Cl)cc1)[C@H]1[C@@H]2C[C@H](c3cncc(C4CC4)c3)C[C@@H]21` [Compound 303, 4-chloro-N-((R)-1-((1R,3R,5S,6r)-3-(5-cyclopropylpyridin-3-yl)bicyclo[3.1.0]hexan-6-yl)propyl)benzamide] reads under 200 nM; that for `CC[C@@H](NC(=O)c1ccc(Cl)cc1)[C@H]1[C@@H]2C[C@@H](n3cc(C(=O)O)cn3)C[C@@H]21` [Compound 328, 1-((1R,3S,5S,6r)-6-((R)-1-(4-chlorobenzamido)propyl)bicyclo[3.1.0]hexan-3-yl)-1H-pyrazole-4-carboxylic acid], 200 to 2000 nM.
`CC[C@@H](NC(=O)c1ccc(C)nc1)[C@H]1[C@@H]2C[C@@H](n3cnc4cc(F)c(F)cc43)C[C@@H]21` [Compound 311, N-((R)-1-((1R,3S,5S,6r)-3-(5,6-difluoro-1H-benzo[d]imidazol-1-yl)bicyclo[3.1.0]hexan-6-yl)propyl)-6-methylnicotinamide] displayed a 50% inhibitory concentration (IC50) of under 200 nM.
In the case of `CCC(NC(=O)c1ccc(Cl)cc1)C1C2CC(Oc3cc(C(F)(F)F)nc4ccc(F)cc34)CC21` [Compound 22, 4-chloro-N-(1-((1R,3s,5S,6r)-3-((6-fluoro-2-(trifluoromethyl)quinolin-4-yl)oxy)bicyclo[3.1.0]hexan-6-yl)propyl)benzamide] it was under 200 nM; in that of `CCC(NC(=O)c1ccc(Cl)cc1)[C@H]1[C@@H]2C[C@@H](n3cc(CO)nn3)C[C@@H]21` (stereo partly drawn) [Compound 146, 4-chloro-N-(1-((1R,3s,5S,6r)-3-(4-(hydroxymethyl)-1H-1,2,3-triazol-1-yl)bicyclo[3.1.0]hexan-6-yl)propyl)benzamide], 200 to 2000 nM; in that of `CC[C@@H](NC(=O)c1ccc(Cl)cc1)[C@H]1[C@@H]2C[C@@H](n3cc(C#N)cn3)C[C@@H]21` [Compound 325, 4-chloro-N-((R)-1-((1R,3S,5S,6r)-3-(4-cyano-1H-pyrazol-1-yl)bicyclo[3.1.0]hexan-6-yl)propyl)benzamide], under 200 nM.
`CCC(NC(=O)c1ccc(Cl)cc1)[C@H]1[C@@H]2C[C@@H](Oc3ccc4c(Cl)ccnc4c3)C[C@@H]21` (stereo partly drawn) [Compound 57, 4-chloro-N-(1-((1R,3s,5S,6r)-3-((4-chloroquinolin-7-yl)oxy)bicyclo[3.1.0]hexan-6-yl)propyl)benzamide] registered a half-inhibitory concentration (IC50) of 200 to 2000 nM.
In the case of `O=C(NC1C2CC(Oc3ccnc4ccccc34)CC21)c1ccc(Cl)cc1` (stereo not drawn) [Compound 26, 4-chloro-N-(3-(quinolin-4-yloxy)bicyclo[3.1.0]hexan-6-yl)benzamide] it was 200 to 2000 nM; in that of `COc1ccc(C(=O)NC(C)[C@H]2[C@@H]3C[C@@H](Oc4ncnc5cc(F)ccc45)C[C@@H]32)cn1` (stereo partly drawn) [Compound 124, N-(1-((1R,3s,5S,6r)-3-((7-fluoroquinazolin-4-yl)oxy)bicyclo[3.1.0]hexan-6-yl)ethyl)-6-methoxynicotinamide], under 200 nM; in that of `CC(NC(=O)c1ccc(C#N)cc1)[C@H]1[C@@H]2C[C@@H](n3cnc4cc(F)ccc4c3=O)C[C@@H]21` (stereo partly drawn) [Compound 120, 4-cyano-N-(1-((1R,3s,5S,6r)-3-(7-fluoro-4-oxoquinazolin-3(4H)-yl)bicyclo[3.1.0]hexan-6-yl)ethyl)benzamide], under 200 nM.
In the case of `CC[C@@H](NC(=O)c1ccc(Cl)cc1)[C@H]1[C@@H]2C[C@@H](c3ccnc4ccc(F)cc34)C[C@@H]21` [Compound 266, 4-chloro-N—((R)-1-((1R,3S,5S,6r)-3-(6-fluoroquinolin-4-yl)bicyclo[3.1.0]hexan-6-yl)propyl)benzamide] it was under 200 nM.
In turn, `CCC(NC(=O)c1ccc(C#N)cn1)[C@H]1[C@@H]2C[C@@H](n3ncc(=O)c4ccccc43)C[C@@H]21` (stereo partly drawn) [Compound 83, 5-cyano-N-(1-((1R,3s,5S,6r)-3-(4-oxocinnolin-1(4H)-yl)bicyclo[3.1.0]hexan-6-yl)propyl)picolinamide] yielded an IC50 of 200 to 2000 nM.
